According to paper PMC12188386, “Selective CBP/EP300 Bromodomain Inhibitors: Novel Epigenetic Tools to Counter TNF-α-Driven Inflammation” (JACS Au, 2025):
Values after ≈ are worked out from the molar mass of the structure shown.

What was measured:
[1] = target: BRD4(1) (Homo sapiens, UniProt O60885); assay: BROMOscan bromoKdELECT; format: binding; settings: commercial Bromoscan assay
Procedure: (§1) was used as the calibration curve. To obtain saturated solutions of the compounds of interest, in duplicates 4.4 µL of a 10 or 5 mM stock in DMSO was added to 436 µL Buffer (PBS, pH = 7.4), to give a final concentration of 100 or 50 µM. Samples were incubated on a shaker (500 rpm) at 37°C for 90 minutes and then filtered (Millex-GV 13 mm, 0.22 µm). 304 µL of the filtrate was mixed with 76 µL of acetonitrile on a dilution plate, from which 350 µL was transferred to a UV-plate and UV-absorption was read using a SpectraMax M5 (Molecular devices). The absorbance was blank-corrected and compared to the calibration curve to […]
(§2) solubility. The wavelengths used for the calibration curve are available in Table S4.
(§3) Sample preparation in CAPTISOL® […]
lower solubility (2) compounds respectively in a 12.5 w/v% CAPTISOL® solution in water. In a precisely tared vial, required amounts of compounds and CAPTISOL® were weighed out as solids. Based on the known density of 12.5 % CAPTISOL® solution (d = 1.05755 g/mL at 25 °C), the precise weight of the resulting solution and so the required amount of water by weight was calculated. The water was added portion wise with agitation, vortexing and sonication cycles in between additions. The saturated solutions were then filtered (Millex-GV 13 mm, 0.22 µm). In duplicates, aliquots of the filtrates were taken and diluted with blank 12.5 % CAPTISOL® water solution in either a 1:14 (higher sol. compounds) or 1:7 (lower sol. compounds) ratio, 350 µL was transferred to a 96-Well Plate (Greiner, UV-star) then UV absorption (240-400 nm, 10 nm steps) was measured using a SpectraMax M5 (Molecular devices). […] The calculated concentrations are available in Table S4. […]
The bromodomain concentration in the eluates was measured by qPCR.
Test compounds were prepared as 1000X stocks in DMSO and distributed by acoustic transfer (non-contact dispensing). […] KDs were determined using an 11-point 3-fold compound dilution series with one DMSO control point, and were calculated with a standard dose-response curve using the Hill equation: […]

[2] = kinetic solubility; format: physicochemical; settings: PBS buffer, aqueous buffer, kinetic from dmso stock, PBS pH 7.4, 37°C, ± st. dev. between technical replicates, read-out: Kin. Sol.
Procedure: Starting from an initial concentration of 100, 50 or 20 µM, a 2-fold serial dilution of the compound (10 mM stock in DMSO) was prepared in a mixture of ACN/Buffer (PBS, pH = 7.4) 2:8, with 1% DMSO. 350 µL was transferred to a 96-Well Plate (Greiner, UV-star) then UV absorption (240-400 nm, 10 nm steps) was measured. The absorption was blank-corrected and plotted against concentration. The wavelength (λ) providing the best fitting straight line […]
as §1, §2
(§4) Based on the known density of 12.5 % CAPTISOL® solution (d = 1.05755 g/mL at 25 °C), the precise weight of the resulting solution and so the required amount of water by weight was calculated. The water was added portion wise with agitation, vortexing and sonication cycles in between additions. The saturated solutions were then filtered (Millex-GV 13 mm, 0.22 µm). In duplicates, aliquots of the filtrates were taken and diluted with blank 12.5 % CAPTISOL® water solution in either a 1:14 (higher sol. compounds) or 1:7 (lower sol. compounds) ratio, 350 µL was transferred to a 96-Well Plate (Greiner, UV-star) then UV absorption (240-400 nm, 10 nm steps) was measured using a SpectraMax M5 (Molecular devices). The absorption was blank-corrected, compared to the calibration curve obtained during the solubility measurement method above and finally corrected for the dilution ratio to obtain the compound concentration in the saturated 12.5 % CAPTISOL® solution. The calculated concentrations are available in Table S4.
(§5) BROMOscan™ assays (provided by Eurofins DiscoverX, US)1,2 […]
coli host derived from the BL21 strain. E. coli were grown to log-phase and infected with T7 phage from a frozen stock (multiplicity of infection = 0.4) and incubated with shaking at 32°C until lysis (90-150 minutes). The lysates were centrifuged (5,000 x g) and filtered (0.2µm) to remove cell debris. Streptavidin-coated magnetic beads were treated with biotinylated small molecule or acetylated peptide ligands for 30 minutes at room temperature to generate affinity resins for bromodomain assays. The liganded beads were blocked with excess biotin and washed with blocking buffer (SeaBlock (Pierce), 1 % BSA, 0.05 % Tween 20, 1 mM DTT) to remove unbound ligand and to reduce non specific phage binding. Binding reactions were assembled by combining bromodomains, liganded affinity beads, and test compounds (see […]
Sodium azide, 7.4 mM DTT). All reactions were performed in polypropylene 384-well plates in a final volume of 0.02 mL. The assay plates were incubated at room temperature with […]
20). The beads were then resuspended in elution buffer (1x PBS, 0.05% Tween 20, 2 µM non-

[3] = concentration in saturated 12.5% CAPTISOL solution; format: physicochemical; settings: filtered 12.5 w/v% CAPTISOL in water, st. dev. between technical replicates (n=2)
Procedure: as §1, §2, §3
as §4, with “lower solubility (2) compounds respectively in a 12.5 w/v% CAPTISOL® solution in water. In a precisely tared vial, required amounts of compounds and CAPTISOL® were weighed out as solids. Based” for “Based”
as §5
coli host derived from the BL21 strain. […]

Kd [1] [µM] | solubility kinetic at 90 min [2] [µM] | Structure (SMILES) | Conc. in 12.5% Captisol sol. [3] [µM]
5.8 | 22.2 ± 1.3 (≈ 9.53 µg/mL) | CC(=O)Nc1cc(NC(=O)c2ccco2)cc(C(=O)Nc2cccc3nnc(C)cc23)c1 [Compound 1] | 
5.1 | 69.7 ± 0.6 (≈ 31.8 µg/mL) | Cc1cc2c(NC(=O)c3cc(NC(=O)[C@H]4CCCO4)cc(-c4ccn(C)n4)c3)cccc2nn1 [Compound 5] | 790 ± 18

Structure (SMILES) | Kd [1] [µM] | solubility kinetic at 90 min [2] [µM] | Conc. in 12.5% Captisol sol. [3] [µM]
Cc1cc2c(NC(=O)c3cc(NC(=O)c4ccco4)cc(-c4ccn(C)n4)c3)cccc2nn1 [Compound 2] | 3.7 | 3.2 ± 1.3 (≈ 1.45 µg/mL) | 160 ± 1
